Data reported in US20220154296A1, “USE OF ANTI-PD-1 ANTIBODY IN PREPARATION OF MEDICAMENT FOR TREATING SOLID TUMORS” (Shanghai Junshi Biosciences Co., Ltd., priority 2019, published 2022).

Key:
[1] = test system: CT-26 cells; test: Inhibitory effect on tumor growth in CT-26 cell-transplanted B-hPD-1 mice; type: in vivo
Method: CT-26 cells were seeded subcutaneously on the right side of hPD-1 humanized female mice at a concentration of 2.5×10^5 cells/0.1 mL, and the mice were randomly grouped by tumor volume when tumors grew to about 93 mm^3 with 7 mice per group, for a total of 4 groups:
G1: Anti-KLH hIgG4 (1 mg/kg) negative control group;
G3: palbociclib (100 mg/kg);
The experiment was ended 11 days after the first administration. Tumor volume and body weight of mice were measured and recorded twice a week. At the end of the experiment, animals were euthanized and tumor growth inhibition (TGITv%) was calculated.

[2] = test system: chemotherapy-refractory ESCC; conditions: chemotherapy-refractory ESCC patients in China; cited from earlier work

Molecule: CC(=O)c1c(C)c2cnc(Nc3ccc(N4CCNCC4)cn3)nc2n(C2CCCC2)c1=O [palbociclib, reference compound]
- TGI (%) ([1]; 11 days after the first administration, toripalimab 1 mg/kg i.p., palbociclib 100 mg/kg orally): 44.8%
- Tumor volume 11 days after the first administration ([1]; mean ± standard error, toripalimab 1 mg/kg i.p. twice a week, palbociclib 100 mg/kg orally once a day, 7 mice per group): 1550 ± 189 mm^3

B1: SHR-1210: anti-PD-1 antibody SHR-1210, in clinical stage (antibody, chains of the INN, looked up, V domains shown)
VH: EVQLVESGGGLVQPGGSLRLSCAASGFTFSSYMMSWVRQAPGKGLEWVATISGGGANTYYPDSVKGRFTISRDNAKNSLYLQMNSLRAEDTAVYYCARQLYYFDYWGQGTTVTVSS
VL: DIQMTQSPSSLSASVGDRVTITCLASQTIGTWLTWYQQKPGKAPKLLIYTATSLADGVPSRFSGSGSGTDFTLTISSLQPEDFATYYCQQVYSIPWTFGGGTKVEIK
- Anti-tumor activity [2]: effective anti-tumor activity
- Safety [2]: controllable safety
